Experiments:
[1] = target: T1, Full length DGKζ (in-house protein M1-V929) (Homo sapiens, UniProt Q13574); test: Biochemical DGK IC50 assay (ADP-Glo, lipid micelle substrate), DGKζ; conditions: 1 hour preincubation, 1 hour reaction, room temperature
T1 construct: His (N); TEV site (N); made in house; host or cells: Sf9 insect cells (Bac-to-Bac baculovirus)
Summary of the method: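 Enzyme: full-length human DGKζ M1-V929, produced in baculovirus-infected Sf9 cells; substrate DAG/PS micelles. Buffer 50 mM HEPES, 10 mM MgCl2, 0.01 mM CaCl2, 0.1 mM Na3VO4.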

[2] = target: T2, Full length DGKα (D21-10BG, SignalChem) (Homo sapiens, UniProt P23743); test: Biochemical DGK IC50 assay (ADP-Glo, lipid micelle substrate), DGKα; conditions: 1 hour preincubation, 1 hour reaction, room temperature
T2 construct: Full length DGKα (D21-10BG, SignalChem); purchased SignalChem D21-10BG
Summary of the method: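 ADP-Glo luminescence quantified ADP produced after a 1 h room-temperature reaction of full-length DGKα on DAG/PS micelles, in HEPES buffer containing MgCl2, CaCl2, vanadate, BSA and Tween-20. IC50 values derive from activity inhibition over a compound concentration series.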

T2 sequence (P23743 whole entry): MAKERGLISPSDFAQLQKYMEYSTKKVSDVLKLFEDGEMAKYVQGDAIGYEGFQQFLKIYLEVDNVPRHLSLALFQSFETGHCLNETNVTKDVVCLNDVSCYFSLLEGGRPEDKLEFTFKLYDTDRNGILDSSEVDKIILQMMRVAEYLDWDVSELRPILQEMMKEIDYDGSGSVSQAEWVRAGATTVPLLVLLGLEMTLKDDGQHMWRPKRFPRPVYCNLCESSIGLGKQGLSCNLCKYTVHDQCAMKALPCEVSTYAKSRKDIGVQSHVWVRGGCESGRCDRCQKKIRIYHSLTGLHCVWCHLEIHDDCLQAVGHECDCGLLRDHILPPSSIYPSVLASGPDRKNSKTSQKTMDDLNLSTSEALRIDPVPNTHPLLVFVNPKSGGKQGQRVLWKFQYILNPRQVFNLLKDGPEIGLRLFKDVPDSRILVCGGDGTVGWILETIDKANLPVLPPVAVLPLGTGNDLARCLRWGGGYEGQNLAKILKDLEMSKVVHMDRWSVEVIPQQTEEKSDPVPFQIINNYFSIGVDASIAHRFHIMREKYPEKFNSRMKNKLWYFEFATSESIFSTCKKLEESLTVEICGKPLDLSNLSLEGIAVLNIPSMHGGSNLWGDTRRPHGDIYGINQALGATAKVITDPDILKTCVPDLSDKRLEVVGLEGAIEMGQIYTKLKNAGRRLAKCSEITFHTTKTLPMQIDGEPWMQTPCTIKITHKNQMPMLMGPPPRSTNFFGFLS
T1 sequence (Q13574 1-929 isoform Q13574-4): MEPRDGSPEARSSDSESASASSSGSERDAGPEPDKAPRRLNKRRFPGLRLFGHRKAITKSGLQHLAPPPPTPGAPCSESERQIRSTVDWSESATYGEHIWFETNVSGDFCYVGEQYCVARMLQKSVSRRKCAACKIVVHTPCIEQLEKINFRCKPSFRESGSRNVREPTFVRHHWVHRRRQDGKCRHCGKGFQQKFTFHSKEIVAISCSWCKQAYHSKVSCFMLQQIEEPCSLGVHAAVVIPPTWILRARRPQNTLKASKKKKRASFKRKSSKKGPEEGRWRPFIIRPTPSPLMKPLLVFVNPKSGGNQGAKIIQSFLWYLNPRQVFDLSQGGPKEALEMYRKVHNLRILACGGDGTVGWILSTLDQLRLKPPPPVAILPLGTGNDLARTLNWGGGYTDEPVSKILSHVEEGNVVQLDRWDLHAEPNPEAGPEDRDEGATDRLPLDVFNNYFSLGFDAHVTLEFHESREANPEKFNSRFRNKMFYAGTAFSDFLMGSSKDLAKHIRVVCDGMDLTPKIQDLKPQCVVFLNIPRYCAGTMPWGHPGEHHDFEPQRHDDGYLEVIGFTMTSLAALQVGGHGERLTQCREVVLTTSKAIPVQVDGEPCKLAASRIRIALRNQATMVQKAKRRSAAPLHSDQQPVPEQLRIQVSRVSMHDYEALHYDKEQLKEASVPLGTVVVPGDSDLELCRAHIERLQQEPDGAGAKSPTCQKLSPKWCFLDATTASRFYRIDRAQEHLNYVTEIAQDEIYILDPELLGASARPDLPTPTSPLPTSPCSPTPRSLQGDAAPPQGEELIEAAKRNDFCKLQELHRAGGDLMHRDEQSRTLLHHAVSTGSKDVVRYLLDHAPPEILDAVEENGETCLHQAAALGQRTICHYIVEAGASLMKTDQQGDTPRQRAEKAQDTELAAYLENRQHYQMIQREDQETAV

SMILES	IC50 [1] [nM]	IC50 [2] [nM]
[2H]C([2H])([2H])n1c(CC#N)nc2c(N3C[C@@H](C)N(C(C)c4ccc(F)cc4C(F)(F)F)C[C@@H]3C)nc(=O)n(C)c21 (stereo partly drawn) [Compound A37, 2-(6-((2S,5R)-4-(1-(4-fluoro-2-(trifluoromethyl)phenyl)ethyl)-2,5-dimethylpiperazin-1-yl)-3-methyl-9-(methyl-d3)-2-oxo-3,9-dihydro-2H-purin-8-yl)acetonitrile]	18	128000
CCn1c(CC#N)nc2c(N3C[C@@H](C)N(C(C)c4cc(F)cc(C(F)F)c4)C[C@@H]3C)nc(=O)n(C)c21 (stereo partly drawn) [Compound A38, 2-(6-((2S,5R)-4-(1-(3-(difluoromethyl)-5-fluorophenyl)ethyl)-2,5-dimethylpiperazin-1-yl)-9-ethyl-3-methyl-2-oxo-3,9-dihydro-2H-purin-8-yl)acetonitrile]	165	143000
CCn1c(CC#N)nc2c(N3C[C@@H](C)N(C(C)c4ccc(OC)c(C(C)(F)F)c4)C[C@@H]3C)nc(=O)n(C)c21 (stereo partly drawn) [Compound A39, 2-(6-((2S,5R)-4-(1-(3-(1,1-difluoroethyl)-4-methoxyphenyl)ethyl)-2,5-dimethylpiperazin-1-yl)-9-ethyl-3-methyl-2-oxo-3,9-dihydro-2H-purin-8-yl)acetonitrile]	211	> 150000
CCn1c(CC#N)nc2c(N3C[C@@H](C)N(C(C)c4ccc(C(F)(F)F)cc4)C[C@@H]3C)nc(=O)n(C)c21 (stereo partly drawn) [Compound A40, 2-(6-((2S,5R)-2,5-dimethyl-4-(1-(4-(trifluoromethyl)phenyl)ethyl)piperazin-1-yl)-9-ethyl-3-methyl-2-oxo-3,9-dihydro-2H-purin-8-yl)acetonitrile]	398	25900
CC(c1cccc(C(F)(F)F)c1)N1C[C@H](C)N(c2nc(=O)n(C)c3c2nc(CC#N)n3C)C[C@H]1C (stereo partly drawn) [Compound A41, 2-(6-((2S,5R)-2,5-dimethyl-4-(1-(3-(trifluoromethyl)phenyl)ethyl)piperazin-1-yl)-3,9-dimethyl-2-oxo-3,9-dihydro-2H-purin-8-yl)acetonitrile]	16	9700
CCn1c(CC#N)nc2c(N3C[C@@H](C)N(C(C)c4cccc(OC(C)C)c4)C[C@@H]3C)nc(=O)n(C)c21 (stereo partly drawn) [Compound A43, 2-(9-ethyl-6-((2S,5R)-4-(1-(3-isopropoxyphenyl)ethyl)-2,5-dimethylpiperazin-1-yl)-3-methyl-2-oxo-3,9-dihydro-2H-purin-8-yl)acetonitrile]	79	101000
CCn1c(CC#N)nc2c(N3C[C@@H](C)N(C(C)c4cccc(OC(F)(F)F)c4)C[C@@H]3C)nc(=O)n(C)c21 (stereo partly drawn) [Compound A44, 2-(6-((2S,5R)-2,5-dimethyl-4-(1-(3-(trifluoromethoxy)phenyl)ethyl)piperazin-1-yl)-9-ethyl-3-methyl-2-oxo-3,9-dihydro-2H-purin-8-yl)acetonitrile]	34	51200
CCn1c(CC#N)nc2c(N3C[C@@H](C)N(C(C)c4cccc(C)c4)C[C@@H]3C)nc(=O)n(C)c21 (stereo partly drawn) [Compound A45, 2-(6-((2S,5R)-2,5-dimethyl-4-(1-(m-tolyl)ethyl)piperazin-1-yl)-9-ethyl-3-methyl-2-oxo-3,9-dihydro-2H-purin-8-yl)acetonitrile]	410	79300
CCn1c(CC#N)nc2c(N3C[C@@H](C)N(C(C)c4cccc(OC)c4)C[C@@H]3C)nc(=O)n(C)c21 (stereo partly drawn) [Compound A46, 2-(9-ethyl-6-((2S,5R)-4-(1-(3-methoxyphenyl)ethyl)-2,5-dimethylpiperazin-1-yl)-3-methyl-2-oxo-3,9-dihydro-2H-purin-8-yl)acetonitrile]	301	> 150000
CC(c1ccc2nccnc2c1)N1C[C@H](C)N(c2nc(=O)n(C)c3c2nc(CC#N)n3C)C[C@H]1C (stereo partly drawn) [Compound A48, 2-(6-((2S,5R)-2,5-dimethyl-4-(1-(quinoxalin-6-yl)ethyl)piperazin-1-yl)-3,9-dimethyl-2-oxo-3,9-dihydro-2H-purin-8-yl)acetonitrile]	29	44600

Now from value to compound:

IC50 [1] [nM]	IC50 [2] [nM]	SMILES
35	123000	Cc1cnc2ccc(C(C)N3C[C@H](C)N(c4nc(=O)n(C)c5c4nc(CC#N)n5C)C[C@H]3C)cc2n1 (stereo partly drawn) [Compound A49, 2-(6-((2S,5R)-2,5-dimethyl-4-(1-(3-methylquinoxalin-6-yl)ethyl)piperazin-1-yl)-3,9-dimethyl-2-oxo-3,9-dihydro-2H-purin-8-yl)acetonitrile]
37	> 150000	CCn1c(CC#N)nc2c(N3C[C@@H](C)N(C(C)c4ccc5ncc(C(F)(F)F)nc5c4)C[C@@H]3C)nc(=O)n(C)c21 (stereo partly drawn) [Compound A54, 2-(6-((2S,5R)-2,5-dimethyl-4-(1-(3-(trifluoromethyl)quinoxalin-6-yl)ethyl)piperazin-1-yl)-9-ethyl-3-methyl-2-oxo-3,9-dihydro-2H-purin-8-yl)acetonitrile]
31	68700	CCn1c(CC#N)nc2c(N3C[C@@H](C)N(C(C)c4ccc5sc(C)nc5c4)C[C@@H]3C)nc(=O)n(C)c21 (stereo partly drawn) [Compound A55, 2-(6-((2S,5R)-2,5-dimethyl-4-(1-(2-methylbenzo[d]thiazol-5-yl)ethyl)piperazin-1-yl)-9-ethyl-3-methyl-2-oxo-3,9-dihydro-2H-purin-8-yl)acetonitrile]
40	> 10000	CC(c1ccc2c(c1)OCCO2)N1C[C@H](C)N(c2nc(=O)n(C)c3c2nc(CC#N)n3C)C[C@H]1C (stereo partly drawn) [Compound A58, 2-(6-((2S,5R)-4-(1-(2,3-dihydrobenzo[b][1,4]dioxin-6-yl)ethyl)-2,5-dimethylpiperazin-1-yl)-3,9-dimethyl-2-oxo-3,9-dihydro-2H-purin-8-yl)acetonitrile]
279	> 150000	CCn1c(CC#N)nc2c(N3C[C@@H](C)N(C(C)c4ccc5c(c4)OC(C)(C)CO5)C[C@@H]3C)nc(=O)n(CC)c21 (stereo partly drawn) [Compound A62, 2-(6-((2S,5R)-4-(1-(3,3-dimethyl-2,3-dihydrobenzo[b][1,4]dioxin-6-yl)ethyl)-2,5-dimethylpiperazin-1-yl)-3,9-diethyl-2-oxo-3,9-dihydro-2H-purin-8-yl)acetonitrile]
2.3	24200	CC[C@@H]1CN(c2nc(=O)n(C)c3c2nc(CC#N)n3CC)[C@@H](C)CN1C(C)c1ccc2c(c1)OC(C)(C)CO2 (stereo partly drawn) [Compound A65, 2-(6-((2S,5R)-4-(1-(3,3-dimethyl-2,3-dihydrobenzo[b][1,4]dioxin-6-yl)ethyl)-5-ethyl-2-methylpiperazin-1-yl)-9-ethyl-3-methyl-2-oxo-3,9-dihydro-2H-purin-8-yl)acetonitrile]
10	118000	CC[C@H]1CN(C(C)c2ccc3c(c2)OC(C)(C)CO3)[C@H](CC)CN1c1nc(=O)n(C)c2c1nc(CC#N)n2CC (stereo partly drawn) [Compound A67, 2-(6-((2S,5R)-4-(1-(3,3-dimethyl-2,3-dihydrobenzo[b][1,4]dioxin-6-yl)ethyl)-2,5-diethylpiperazin-1-yl)-9-ethyl-3-methyl-2-oxo-3,9-dihydro-2H-purin-8-yl)acetonitrile]
6	3070	CC(c1cc2c(cc1F)OCC(C)(C)O2)N1C[C@H](C)N(c2nc(=O)n(C)c3c2nc(CC#N)n3C)C[C@H]1C (stereo partly drawn) [Compound A69, 2-(6-((2S,5R)-4-(1-(7-fluoro-3,3-dimethyl-2,3-dihydrobenzo[b][1,4]dioxin-6-yl)ethyl)-2,5-dimethylpiperazin-1-yl)-3,9-dimethyl-2-oxo-3,4,5,9-tetrahydro-2H-purin-8-yl)acetonitrile]
8	9690	CC(c1ccc2c(c1F)OC(C)(C)CO2)N1C[C@H](C)N(c2nc(=O)n(C)c3c2nc(CC#N)n3C)C[C@H]1C (stereo partly drawn) [Compound A70, 2-(6-((2S,5R)-4-(1-(5-fluoro-3,3-dimethyl-2,3-dihydrobenzo[b][1,4]dioxin-6-yl)ethyl)-2,5-dimethylpiperazin-1-yl)-3,9-dimethyl-2-oxo-3,9-dihydro-2H-purin-8-yl)acetonitrile]
48	124000	CCn1c(CC#N)nc2c(N3C[C@@H](C)N(C(C)c4ccc5c(c4F)OC(C)(C)CO5)C[C@@H]3C)nc(=O)n(C)c21 (stereo partly drawn) [Compound A71, 2-(9-ethyl-6-((2S,5R)-4-(1-(5-fluoro-3,3-dimethyl-2,3-dihydrobenzo[b][1,4]dioxin-6-yl)ethyl)-2,5-dimethylpiperazin-1-yl)-3-methyl-2-oxo-3,9-dihydro-2H-purin-8-yl)acetonitrile]
64	> 150000	CCn1c(CC#N)nc2c(N3C[C@@H](C)N(C(C)c4cc(Cl)c5c(c4)OC(C)(C)CO5)C[C@@H]3C)nc(=O)n(C)c21 (stereo partly drawn) [Compound A72, 2-(6-((2S,5R)-4-(1-(8-chloro-3,3-dimethyl-2,3-dihydrobenzo[b][1,4]dioxin-6-yl)ethyl)-2,5-dimethylpiperazin-1-yl)-9-ethyl-3-methyl-2-oxo-3,9-dihydro-2H-purin-8-yl)acetonitrile]
639	> 150000	CCn1c(CC#N)nc2c(N3C[C@@H](C)N(C(C)c4cc5c(cc4Cl)OCC(C)(C)O5)C[C@@H]3C)nc(=O)n(C)c21 (stereo partly drawn) [Compound A73, 2-(6-((2S,5R)-4-(1-(7-chloro-3,3-dimethyl-2,3-dihydrobenzo[b][1,4]dioxin-6-yl)ethyl)-2,5-dimethylpiperazin-1-yl)-9-ethyl-3-methyl-2-oxo-3,9-dihydro-2H-purin-8-yl)acetonitrile]

Source: US20260125378A2, “Heterocyclic Compounds” (BeOne Medicines I GmbH, priority 2023, published 2026)
